Source: ChEMBL document CHEMBL1150150, “New dammarane and malabaricane triterpenes from Caloncoba echinata” (J Nat Prod, 2002)

Assays:
[1] = Toxicity in human erythrocytes assessed as transformation of erythrocytes to stomatocytes at 0.625 after 48 hrs by Giemsa staining; type: cell-based; conditions: erythrocyte
[2] = Effect on human erythrocyte morphology assessed as transformation of erythrocytes to stomatocytes S2 type at 25 to 100 ug/mL after 48 hrs by Giemsa staining; type: ADME, cell-based
[3] = Effect on morphology of human erythrocytes assessed as transformation of erythrocytes to stomatocytes S1 type at 6.25 ug/mL after 48 hrs by Giemsa staining; type: ADME, cell-based; conditions: erythrocyte
[4] = Effect on human erythrocyte morphology assessed as transformation of erythrocytes to spherostomatocytes at 25 to 100 ug/mL after 48 hrs by Giemsa staining; type: ADME, cell-based
[5] = Effect on morphology of human erythrocytes assessed as occurrence of normal discocytes at 6.25 ug/mL after 48 hrs by Giemsa staining; type: ADME, cell-based; conditions: erythrocyte
Plasmodium falciparum = test: Antiplasmodial activity against chloroquine-sensitive Plasmodium falciparum 3D7 after 48 hrs by [3H]phenylalanine uptake
[6] = Effect on human erythrocyte morphology assessed as ghost cell formation at 50 to 100 ug/mL after 48 hrs by Giemsa staining; type: ADME, cell-based
[7] = Effect on human erythrocyte morphology assessed as transformation of erythrocytes to stomatocytes S1 type at 12.5 ug/mL after 48 hrs by Giemsa staining; type: ADME, cell-based
[8] = Toxicity in human erythrocyte assessed as lysis at 25 to 100 ug/mL after 48 hrs by Giemsa staining; type: cell-based
[9] = Effect on human erythrocyte morphology assessed as transformation of erythrocytes to stomatocytes S1 type at 25 to 100 ug/mL after 48 hrs by Giemsa staining; type: ADME, cell-based
[10] = Effect on human erythrocyte morphology assessed as transformation of erythrocytes to stomatocytes after 48 hrs by Giemsa staining; type: ADME, cell-based
[11] = Effect on morphology of human erythrocytes assessed as transformation of erythrocytes to stomatocytes S2 type at 6.25 ug/mL after 48 hrs by Giemsa staining; type: ADME, cell-based; conditions: erythrocyte
[12] = Toxicity in human erythrocytes assessed as lysis at 12.5 ug/mL after 48 hrs by Giemsa staining; type: cell-based; conditions: erythrocyte

IC50 (Plasmodium falciparum) | SMILES | Activity [1] | Activity [2] | Activity [3] | Activity [4] | Activity [5] | Activity [6] | Activity [7] | Activity [8] | Activity [9] | Activity [10] | Activity [11] | Activity [12]
< 12 µg/mL | C=C(CC[C@@H](O)[C@]1(C)CC[C@H](C(C)(C)O)O1)[C@H]1CC[C@H]2[C@@]1(C)CC[C@H]1C(C)(C)C(=O)CC[C@]21C | Non-toxic | Toxic | Toxic | Toxic | Non-toxic | Toxic | Toxic | Toxic | Toxic | Toxic |  | 
< 12 µg/mL | C=C(CC[C@H](O)[C@@]1(C)CC[C@H](C(C)(C)O)O1)[C@H]1CC[C@H]2[C@@]1(C)CC[C@H]1C(C)(C)C(=O)CC[C@]21C | Non-toxic | Toxic | Toxic | Toxic | Non-toxic | Toxic | Toxic | Toxic | Toxic | Toxic |  | 
< 12 µg/mL | CC(C)=CCC[C@@](C)(O)[C@H]1CC[C@]2(C)[C@@H]1C[C@@H](O)[C@@H]1[C@@]3(C)CCC(=O)C(C)(C)[C@@H]3CC[C@]12C | Non-toxic | Toxic | Toxic | Toxic | Non-toxic | Toxic | Toxic | Toxic | Toxic | Toxic | Toxic | Non-toxic
